Test results as given in patent US20050106213A1, “Resorption-controlled bone implants” (priority 2001, published 2005).

Experiments:
osteoclasts [1] = assay: CAP cement rods or pastes doped with Bafilomycin A1 implanted in rat femur defects, histology; assay type: in vivo
Description: The calcium phosphate precursor powder consisted of an equimolar mixture of DCPA and TTCP sterilized by gamma irradiation (20 kGy). Deionized double distilled water was obtained from a Millipore Milli-RO 10 Plus and Mill-Q UF Plus systems (Bedford, Mass., USA) operated at 18 MΩ resistance. The liquid phase was a neutral sodium hydrogen phosphate solution at pH 7.4, which was sterilized by filtration through 0.22 μm filters (Millipore Corp., Bedford, Mass., USA).
(§1) Bafilomycin A1 was first dissolved in DMSO solution (other solutions that can be used are methanol and ethanol), and then dispersed in a neutral phosphate solution (pH 7.4) prepared from Na2HPO4 and NaH2PO4.
After Bafilomycin A1 was dispersed in the biphasic liquid phase, the liquid phase was added to one of the solid components of the CAP, dicalcium phosphate anhydrous (DCPA). The DCPA was dissolved in the liquid phase and left at room temperature for 2 min with continuous mixing.
Next, tetracalcium phosphate (TTCP) was gradually added to the first dissolved CAP component to produce a paste. The powder to liquid ratio (P/L) of the final CAP was 2.0 (wt/wt).
The pastes were either implanted or used for the preparation of rods. Cement rods (1.9 mm diameter×2.3 mm height) were shaped by allowing aliquots of packed CPC pastes to set in custom made Teflon® formers for 24 h at 37C and 100% humidity and subsequently for 48 h at room temperature.
Young male Wistar rats with an average body weight of 125-150 g were purchased from Charles River (QC, Canada), housed in light- and temperature-controlled rooms, and fed a standard diet. The maintenance and use of animals were in accordance with the Canadian Council of Animal Care Guidelines.
Bone defects were drilled in the mid-diaphysis of the femur. The holes were made using a low speed dental drill (2.3 mm in diameter) with copious saline irrigation. Pre-hardened CPC rods were placed into the holes using gentle pressure. Every rat received two implants, a control rod (paste) in one femur and a rod (paste) containing Bafilomycin A1 in another femur. The animals were observed daily throughout the implantation period.
After desired time in vivo, the animals were sacrificed, and the femurs were removed. The femurs were then exposed to a fixative solution for 48 h, decalcified in a 1:1 mixture of 45% formic acid and 20% sodium citrate, dehydrated and embedded in low-melting-point paraffin. Serial sections (6 μm thick) perpendicular to the long axis of the implant were obtained using a hard tissue Spencer 820 microtome. Sample sections were stained with hematoxylin-eosin (H&E) and Mason's trichrome stains. Representative sections were also tested for the presence of tartrate resistant acid phosphatase (TRAP) enzyme, characteristic of osteoclasts, to determine the identity of the cells at the material/bone interface.

osteoclasts [2] = assay: Bafilomycin-doped CAP implant rods in ovariectomized aged rats (model of osteoporosis), histology; assay type: in vivo, rat; details: ovx aged Brown Norway rats, 75-100 μg per 500 mg CAP
Experimental: Performance of the bafilomycin-doped implant was also assessed in a model of osteoporosis which utilizes ovarectomized aged rats. Successful integration of osseous implants with host bone tissue can be adversely affected by pathological bone conditions such as osteoporosis, which result in osteopenia due to disturbance of the balance between bone resorption and bone formation processes. Therefore, systemic bone loss due to estrogen deficiency may also affect bone growth and maintenance around the implants. Although current attention has been focused in the art on systemic fracture prevention and development of new therapies aimed at conserving bone mass, little emphasis has been given to increasing osteointegration of implants in osteoporotic defect site.
The effects of ovariectomy on bone tissue formation and resorption of proton pump inhibitor (Bafilomycin A1)—modified resorbable CAP cement implants in comparison to the controls were studied.
Ten-month old ovariectomized (ovx) virgin Brown Norway rats with were purchased from the National Institute on Aging (Bethesda, Md., USA), housed individually in light- and temperature-controlled rooms, and fed a restricted diet (6 pellets/day). These animals were kept for additional four months following the ovariectomy. […]

osteoclasts [3] = assay: Bafilomycin-doped CAP implant rods in young and non-ovx aged Brown Norway rats (comparison groups), histology; parameters: species or system rat; details: young control group and non-ovx aged group; observed even at 4 months in vivo
Description: Ten-month old ovariectomized (ovx) virgin Brown Norway rats with were purchased from the National Institute on Aging (Bethesda, Md., USA), housed individually in light- and temperature-controlled rooms, and fed a restricted diet (6 pellets/day). These animals were kept for additional four months following the ovariectomy. Non-ovx virgin Brown Norway rats of the same age as the experimental rats at the time of implantation (fourteen months) were used as a control group for the ovx animals. Young virgin female Brown Norway rats (three months old) were used as another comparison group to assess the implant integration and resorption. The maintenance and use of animals were in accordance with the Canadian Council of Animal Care Guidelines.
Production of the CAP implant doped with bafilomycin was performed as described above, i.e., resorbable CAP based on the TTCP and DCPA chemistry. Bafilomycin in concentration of 75-100 μg per 250 μL of liquid neutral phosphate phase per 500 mg of CAP was used.
The implants were allowed to set to form pre-hardened implant rods. The implants were retrieved at 10 days, 1 month, 2 months, and 4 months post-surgery.

[4] = Solubility of Bafilomycin A1 in solvent for liquid phase preparation; assay type: physicochemical; details: at 2.0×10^−3 M
Description: as §1

osteoclast proton pump = assay: Calcibon cement rods doped with Panto IV implanted in femur of young Wistar rats, histology; assay type: in vivo, rat; details: 4 mg Panto IV per mL neutral phosphate solution per 500 mg Calcibon, 10 days
Experimental: Experiments with a commercially available proton pump inhibitor, sodium pantoprazole sold as Panto IV®, were performed in healthy young Wistar rats.
Although Panto IV is highly specific for the proton pumps of the parietal cells, it was hypothesized that it may non-specifically affect other proton pumps, including the osteoclast proton pump. A commercially available calcium phosphate material, Calcibon, was also used which is less resorbable than the previously used CAP to determine whether the strategy for stimulating local bone mass can be used with other materials.
The CAP material used was Calcibon provided by the Merck Biomaterials/Biomet company. The concentration used was 4 mg Panto IV per/mL of neutral phosphate solution per 500 mg of CAP powder used to prepare the cement. The cement doped with the PPI was then allowed to set, as described previously. The pre-set rods were implanted in young Wistar rats according to the same procedure as described previously.

Structure (SMILES)	control of CAP cement resorption (dose range study outcome) (osteoclasts [1]; 1.61×10^−4 M Bafilomycin A1 in liquid phase (DMSO solvent), rat femur implant)	amount of new bone surrounding the implant versus control cement (osteoclasts [1]; 1.61×10^−4 M, all specimens studied, young male Wistar rats)	resorption rate of CAP cement in comparison to controls (osteoclasts [1]; 1.61×10^−4 M, histology, young male Wistar rats)	formation of osteoclastic cutting cones into the material (osteoclasts [1]; 1.61×10^−4 M, tissue/material interface)	density of new bone surrounding the cement versus control (osteoclasts [1]; 1.61×10^−4 M, young male Wistar rats)	bone healing around the implant (osteoclasts [1]; highest concentration 2.0×10^−3 M Bafilomycin A1 in liquid phase (methanol solvent), rat femur implant)	response of CAP implanted as paste (resorption, new bone) (osteoclasts [1]; injectable paste, 14 days after implantation, rat femur)	histology / resorption of cement versus control (osteoclasts [1]; lowest concentration 1.61×10^−5 M Bafilomycin A1 in liquid phase (DMSO solvent), rat femur implant)	resorption of implant in comparison to control material (osteoclasts [2]; throughout 4-month in vivo period)	local bone mass around implant (osteoclasts [2]; up to 4 months)	bone formation around the material doped with PPI (trend) (osteoclasts [3])	resorption of the material doped with PPI (trend) (osteoclasts [3])	solubility in DMSO [4]	reparative bone mass surrounding the implant versus control (osteoclast proton pump)
CO/C1=C\C(C)=C\[C@@H](C)[C@@H](O)[C@@H](C)C/C(C)=C/C=C/[C@H](OC)[C@@H]([C@@H](C)[C@@H](O)[C@H](C)[C@@]2(O)C[C@@H](O)[C@H](C)[C@@H](C(C)C)O2)OC1=O [Bafilomycin A1]	found to work very well	consistently surrounded by more bone than the control cements	decreased the resorption rate	did not form “cutting cones”	appeared to be denser than the bone around the controls	the bone would not heal around the implant	showed the same response as that observed for the pre-set cements	did not differ in histology	reduction of the resorption	increased local bone mass	increased bone formation	reduced resorption	solubility of Bafilomycin A1 in DMSO was exceeded	
COc1ccnc(Cc2nc3cc(OC(F)F)ccc3[nH]2)c1OC [Panto IV, 5-difluoromethoxy-2-[(3,4-dimethoxy-2-pyridinyl)methyl]-1H-benzimidazole]														surrounded by higher reparative bone mass than the control
